One block for each molecule: values may come before it.
Experiments:
Type in all cases: cell-based
[1] = test system: Candida albicans; experiment: Minimum inhibitory concentration according to DIN 58940, Candida albicans; settings: single antimicrobial agents
Source text: (§1) In order to calculate the Synergy Index SI with MIC values, the Kull equation is used as follows:
(§2) SI=(MICmixture×PA)/MICA+(MICmixture×PB)/MICB (II)
(§3) where SI is the Synergy Index according to Kull^1), 2) MICA is the MIC value for substance A MICB is the MIC value for substance B MICmixture is the MIC value for the mixture of substances A and B PA is the proportion of the substance A in the mixture PB is the proportion of the substance B in the mixture. b) Mixtures containing 3 components
(§4) SI=(MICmixture×PA)/MICA+(MICmixture×PB)/MICB+(MICmixture×PC)/MICC
(§5) where SI is the Synergy Index according to Kull^1), 2) MICA is the MIC value for substance A MICB is the MIC value for substance B MICC is the MIC value for substance C MICmixture is the MIC value for the mixture of substances […] PA is the proportion of the substance A in the mixture PB is the proportion of the substance B in the mixture. PC is the proportion of the substance C in the mixture.

[2] = test system: A. brasiliensis; experiment: Challenge test / synergy (Kull equation), A. brasiliensis
Experimental: (§6) 1% b.w. of heptylglycerin, benzylglycerin and phenylpropylglycerin, respectively was added to an aqueous emulsion of Glyceryl stearyl citrate (Dracorin CE). The formulations were tested in standard challenge tests against various micro-organisms.
To calculate the synergism between compounds of formula (I) and other antimicrobial actives, the Kull equation^1 2 was used
SI=(Cmixture×PA)/CA+(Cmixture×PB)/CB (I)
where SI is the Synergy Index according to Kull^1), 2) CA is the cell count for substance A CB is the cell count for substance B Cmixture is the cell count for the mixture of substances A and B PA is the proportion of the substance A in the mixture PB is the proportion of the substance B in the mixture. ^1 Kull, F. C., Eismann, P. C., Sylvestrowicz, H. D., and R. L. Mayer (1961). Mixtures of Quaternary Ammonium Compounds and Long-chain Fatty Acids as Antifungal Agents. Applied Microbiology 9, 538-541.^2 Steinberg, D.C. (2000). Measuring Synergy. Cosmetics & Toiletries 115 (11), 59-62.
Colony counts of <100 were arbitrarily set to 100, in order to allow for synergy calculations with the above equation. The abbreviation “n.a.” means not applicable.

[3] = test system: Staphylococcus aureus; experiment: Minimum inhibitory concentration according to DIN 58940, Staphylococcus aureus; settings: single antimicrobial agents
Source text: as §1, §2, §3, §4, §5

[4] = test system: Aspergillus brasiliensis; experiment: Minimum inhibitory concentration according to DIN 58940, Aspergillus brasiliensis; settings: single antimicrobial agents
Source text: as §1, §2, §3, §4, §5

[5] = test system: Pseudomonas aeruginosa; experiment: Minimum inhibitory concentration according to DIN 58940, Pseudomonas aeruginosa; settings: single antimicrobial agents
Source text: as §1, §2, §3, §4, §5

[6] = test system: Escherichia coli; experiment: Minimum inhibitory concentration according to DIN 58940, Escherichia coli; settings: single antimicrobial agents
Source text: as §1, §2, §3, §4, §5

[7] = test system: E. coli; experiment: Challenge test of preserved emulsion, E. coli
Experimental: as §6, with “micro-organisms. The results are shown in Table 1 and indicate the high activity of the actives against yeast and bacteria, but not against mould.” for “micro-organisms.”

[8] = test system: P. aeruginosa; experiment: Challenge test of preserved emulsion, P. aeruginosa
Experimental: as §6, with “micro-organisms. The results are shown in Table 1 and indicate the high activity of the actives against yeast and bacteria, but not against mould.” for “micro-organisms.”

[9] = test system: C. albicans; experiment: Challenge test of preserved emulsion, C. albicans
Experimental: as §6, with “micro-organisms. The results are shown in Table 1 and indicate the high activity of the actives against yeast and bacteria, but not against mould.” for “micro-organisms.”

[10] = test system: S. aureus; experiment: Challenge test of preserved emulsion, S. aureus
Experimental: as §6, with “micro-organisms. The results are shown in Table 1 and indicate the high activity of the actives against yeast and bacteria, but not against mould.” for “micro-organisms.”

[11] = Table 2, day 0, 1.0% total active
[12] = Table 2, day 0, relative to day 0, 1.0% total active
[13] = Table 2, day 2, 1.0% total active
[14] = Table 2, day 2, relative to day 0, 1.0% total active
[15] = Table 2, day 7, 1.0% total active
[16] = Table 2, day 7, relative to day 0, 1.0% total active
[17] = Table 2, day 14, 1.0% total active
[18] = Table 2, day 14, relative to day 0, 1.0% total active
[19] = Table 2, day 28, 1.0% total active
[20] = Table 2, day 28, relative to day 0, <100 set to 100, 1.0% total active
[21] = Day 0, 1% b.w. active in aqueous emulsion of Glyceryl stearyl citrate (Dracorin CE)
[22] = Day 2, 1% b.w. active in aqueous emulsion of Glyceryl stearyl citrate (Dracorin CE)
[23] = Day 14, 1% b.w. active in aqueous emulsion of Glyceryl stearyl citrate (Dracorin CE)
[24] = Day 28, 1% b.w. active in aqueous emulsion of Glyceryl stearyl citrate (Dracorin CE)
[25] = Day 7, 1% b.w. active in aqueous emulsion of Glyceryl stearyl citrate (Dracorin CE)

MIC values Candida albicans [1]: 6000 ppm
MIC values Staphylococcus aureus [3]: 6000 ppm
MIC values Aspergillus brasiliensis [4]: 4000 ppm
MIC values Pseudomonas aeruginosa [5]: 4000 ppm
MIC values E. coli [6]: 4000 ppm
Structure (SMILES): CC(=O)c1ccc(O)cc1 [4HAP, 4-hydroxyacetophenone]
Colony counts day 0 [2, 11]: 300.000 cfu/g formulation
Relative colony counts day 0 [2, 12]: 1.0000
Colony counts day 2 [2, 13]: 56.000 cfu/g formulation
Relative colony counts day 2 [2, 14]: 0.1867
Colony counts day 7 [2, 15]: 1.900 cfu/g formulation
Relative colony counts day 7 [2, 16]: 0.0063
Colony counts day 14 [2, 17]: 1.900 cfu/g formulation
Relative colony counts day 14 [2, 18]: 0.0063
Colony counts day 28 [2, 19]: <100 cfu/g formulation
Relative colony counts day 28 [2, 20]: 0.0003
Colony counts day 0 ([2]; Table 3, day 0, 1.0% total active): 300.000 cfu/g formulation
Relative colony counts day 0 ([2]; Table 3, day 0, relative to day 0, 1.0% total active): 1.0000
Colony counts day 2 ([2]; Table 3, day 2, 1.0% total active): 56.000 cfu/g formulation
Relative colony counts day 2 ([2]; Table 3, day 2, relative to day 0, 1.0% total active): 0.1867
Colony counts day 7 ([2]; Table 3, day 7, 1.0% total active): 1.900 cfu/g formulation
Relative colony counts day 7 ([2]; Table 3, day 7, relative to day 0, 1.0% total active): 0.0063
Colony counts day 14 ([2]; Table 3, day 14, 1.0% total active): 1.900 cfu/g formulation
Relative colony counts day 14 ([2]; Table 3, day 14, relative to day 0, 1.0% total active): 0.0063
Colony counts day 28 ([2]; Table 3, day 28, 1.0% total active): <100 cfu/g formulation
Relative colony counts day 28 ([2]; Table 3, day 28, relative to day 0, <100 set to 100, 1.0% total active): 0.0003

MIC ([1]; Candida albicans): 20 mg/mL
MIC ([3]; Staphylococcus aureus): 20 mg/mL
MIC ([4]; Aspergillus brasiliensis): 20 mg/mL
MIC ([5]; Pseudomonas aeruginosa): 20 mg/mL
MIC ([6]; Escherichia coli, read-out: MIC values E. coli): 10 mg/mL
Structure (SMILES): OCC(O)COCc1ccccc1 (stereo not drawn) [Benzylglycerin]
colony counts Day 0 [2, 21]: 360.000 cfu/g formulation
colony counts Day 2 [2, 22]: 490.000 cfu/g formulation
colony counts Day 14 [2, 23]: 300.000 cfu/g formulation
colony counts Day 28 [2, 24]: 30.000 cfu/g formulation
colony counts Day 0 [7, 21]: 250.000 cfu/g formulation
colony counts Day 2 [7, 22]: 0 cfu/g formulation
colony counts Day 7 [7, 25]: 0 cfu/g formulation
colony counts Day 14 [7, 23]: 0 cfu/g formulation
colony counts Day 28 [7, 24]: 0 cfu/g formulation
colony counts Day 0 [8, 21]: 210.000 cfu/g formulation
colony counts Day 2 [8, 22]: 0 cfu/g formulation
colony counts Day 7 [8, 25]: 0 cfu/g formulation
colony counts Day 14 [8, 23]: 0 cfu/g formulation
colony counts Day 28 [8, 24]: 0 cfu/g formulation
colony counts Day 14 [9, 23]: 0 cfu/g formulation
colony counts Day 28 [9, 24]: 0 cfu/g formulation
colony counts Day 0 [10, 21]: 240.000 cfu/g formulation
colony counts Day 2 [10, 22]: 700 cfu/g formulation
colony counts Day 7 [10, 25]: <100 cfu/g formulation
colony counts Day 14 [10, 23]: 0 cfu/g formulation
colony counts Day 28 [10, 24]: 0 cfu/g formulation

MIC values Candida albicans [1]: 2000 ppm
MIC values Staphylococcus aureus [3]: 2000 ppm
MIC values Aspergillus brasiliensis [4]: 2000 ppm
MIC values Pseudomonas aeruginosa [5]: >20000 ppm
MIC values E. coli [6]: 2500 ppm
Structure (SMILES): CCCCC(CC)COCC(O)CO (stereo not drawn) [Ethylhexylglycerin]
Colony counts day 0 [2, 11]: 315.000 cfu/g formulation
Relative colony counts day 0 [2, 12]: 1.0000
Colony counts day 2 [2, 13]: 159.000 cfu/g formulation
Relative colony counts day 2 [2, 14]: 0.5048
Colony counts day 7 [2, 15]: 150.000 cfu/g formulation
Relative colony counts day 7 [2, 16]: 0.4762
Colony counts day 14 [2, 17]: 304.000 cfu/g formulation
Relative colony counts day 14 [2, 18]: 0.9635
Colony counts day 28 [2, 19]: 304.000 cfu/g formulation
Relative colony counts day 28 [2, 20]: 0.9635

— US20160100574A1, “Antimicrobial Compositions Comprising Glyceryl Ethers” (SYMRISE AG, priority 2013, published 2016)
